Assay [1] deals with T1, human recombinant adrenergic α2A receptor (Homo sapiens, UniProt P08913).
T1 construct: expressed in transfected cells; host or cells: insect Sf9 cells
T1 sequence (P08913 1-465): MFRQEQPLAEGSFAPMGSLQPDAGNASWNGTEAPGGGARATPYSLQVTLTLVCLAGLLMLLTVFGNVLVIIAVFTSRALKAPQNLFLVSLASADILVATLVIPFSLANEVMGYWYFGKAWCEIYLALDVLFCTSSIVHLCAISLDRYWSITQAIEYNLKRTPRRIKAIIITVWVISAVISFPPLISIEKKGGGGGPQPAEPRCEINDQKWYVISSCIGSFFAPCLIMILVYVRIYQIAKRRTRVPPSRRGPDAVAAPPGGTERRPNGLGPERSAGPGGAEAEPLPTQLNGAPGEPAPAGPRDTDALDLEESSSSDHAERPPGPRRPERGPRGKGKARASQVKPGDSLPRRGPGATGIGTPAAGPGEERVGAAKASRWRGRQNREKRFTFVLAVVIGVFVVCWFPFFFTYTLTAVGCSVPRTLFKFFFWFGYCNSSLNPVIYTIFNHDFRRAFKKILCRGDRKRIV
The experiment in a line: Radioligand binding, adrenergic α2A ([3H]MK-912). The following applies: 0.1 μM compound, [3H]MK-912. The method in brief:
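Receptor expressed in Sf9 cells, in 50 mM Tris-HCl pH 7.4, 12.5 mM MgCl2, 2 mM EDTA; compounds incubated with 1 nM [3H]MK-912 for 60 min at 25 °C.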

The target in assay [2] is T2, human recombinant adrenergic α2B receptor (Homo sapiens, UniProt P18089).
T2 construct: expressed in transfected cells; host or cells: CHO-K1
T2 sequence (P18089 1-450): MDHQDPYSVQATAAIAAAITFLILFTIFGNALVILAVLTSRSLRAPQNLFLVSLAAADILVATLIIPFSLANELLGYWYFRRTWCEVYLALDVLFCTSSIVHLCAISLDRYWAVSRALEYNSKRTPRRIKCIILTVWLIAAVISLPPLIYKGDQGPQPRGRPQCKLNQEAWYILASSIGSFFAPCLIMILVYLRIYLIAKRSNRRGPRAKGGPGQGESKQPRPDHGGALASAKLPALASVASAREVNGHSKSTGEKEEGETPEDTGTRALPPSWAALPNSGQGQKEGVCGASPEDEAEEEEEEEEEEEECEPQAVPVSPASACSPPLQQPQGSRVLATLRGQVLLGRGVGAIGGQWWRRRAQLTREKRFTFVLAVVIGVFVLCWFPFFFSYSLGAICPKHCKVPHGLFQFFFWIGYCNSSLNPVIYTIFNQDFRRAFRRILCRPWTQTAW
The experiment in a line: Radioligand binding, adrenergic α2B ([3H]Rauwolscine). The method in brief: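 Receptor expressed in CHO-K1 cells, assayed in 50 mM Tris-HCl pH 7.4 with 12.5 mM MgCl2, 1 mM EDTA and 0.2% BSA. Compounds were incubated with 2.5 nM [3H]Rauwolscine for 60 min at 25° C; 10 μM Prazosin defined non-specific binding. Filter counting gave percent inhibition of specific binding.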

The target in assay [3] is T3, rat adrenergic α1B receptor (Rattus norvegicus, UniProt P15823).
T3 construct: rat adrenergic α1B receptor obtained from Wistar Rat liver; from tissue; host or cells: Wistar rat liver
T3 sequence (P15823 1-515): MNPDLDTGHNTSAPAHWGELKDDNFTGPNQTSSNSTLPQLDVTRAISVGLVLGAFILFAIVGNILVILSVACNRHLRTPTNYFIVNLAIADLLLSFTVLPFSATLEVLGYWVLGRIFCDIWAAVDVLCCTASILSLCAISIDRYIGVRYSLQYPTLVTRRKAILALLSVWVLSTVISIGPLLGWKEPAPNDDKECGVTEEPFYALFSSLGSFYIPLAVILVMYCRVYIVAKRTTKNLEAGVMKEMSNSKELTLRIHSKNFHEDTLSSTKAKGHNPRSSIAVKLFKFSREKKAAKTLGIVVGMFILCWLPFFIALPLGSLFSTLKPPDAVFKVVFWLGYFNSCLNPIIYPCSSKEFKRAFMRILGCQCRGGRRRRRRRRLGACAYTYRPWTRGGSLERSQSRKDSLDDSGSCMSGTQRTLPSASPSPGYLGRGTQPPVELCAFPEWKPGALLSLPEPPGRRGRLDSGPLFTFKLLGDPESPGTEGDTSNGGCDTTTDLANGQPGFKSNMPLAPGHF
In words: Radioligand binding, adrenergic α1B ([3H]Prazosin). Set-up: species or system Wistar Rat. To be noted: 0.1 μM compound, 0.1 µM. The procedure, abridged:
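Specific binding, taken as total minus that remaining with 10 μM phentolamine, is measured after filtration and counting. Rat liver receptor preparation and 0.25 nM [3H]prazosin are incubated with compound in 50 mM Tris-HCl (pH 7.4, 0.5 mM EDTA) at 25° C for 60 min. Activity is reported as percent inhibition.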

Several values for one entry are separate records, joined by “and”; a condition that tells them apart may be missing. Identical values can stand only once.

The text below walks through data of patent publication US9550782B2, “Compounds and methods for treating diabetes” (Medivation Technologies, Inc., priority 2011, dated 2017).

On to `CN1CCc2c(c3cc(Cl)ccc3n2CC(C)(O)c2ccc(C(F)(F)F)nc2)C1` (single isomer, unassigned) [143b], for which the “Percentage inhibition of ligand binding, Adrenergic α2A” value (from here on “Percentage inhibition … Adrenergic α2A”) in assay [1] amounted to 0%. In addition, the “Percentage inhibition of ligand binding, Adrenergic α2B” value (shortened to “Percentage inhibition … Adrenergic α2B”) in assay [2] (0.03 μM compound) amounted to 49%. Also, the “Percentage inhibition of ligand binding, Adrenergic α1B” value (“Percentage inhibition … Adrenergic α1B” below) in assay [3] was 17%.

Regarding `Cc1ccc2c(c1)c1c(n2CC(C)(OC(=O)C(C)C)c2cccnc2)CCN(C)C1` (single isomer, unassigned) [146a], the “Percentage inhibition … Adrenergic α2A” value in assay [1] (0.1 µM) is −1%. The “Percentage inhibition … Adrenergic α2B” value in assay [2] (0.03 μM compound, 0.03 µM) stood at 37%. Also, the “Percentage inhibition … Adrenergic α1B” value in assay [3] was determined as 41%.

Turning to `Cc1ccc2c(c1)c1c(n2CC(C)(OC(=O)C(C)C)c2cccnc2)CCN(C)C1` (single isomer, unassigned) [146b], in assay [1] (0.1 µM), the “Percentage inhibition … Adrenergic α2A” value was determined as 21%. Besides, in assay [2] (0.03 μM compound, 0.03 µM), the “Percentage inhibition … Adrenergic α2B” value worked out at 63%. Moreover, the “Percentage inhibition … Adrenergic α1B” value in assay [3] amounted to 11%.

As for `Cc1cnc2c(c1)c1c(n2CC(C)(O)c2ccc(C)nc2)CCN2CCCC12` (single isomer, unassigned) [148a], in assay [1] (0.1 µM), the “Percentage inhibition … Adrenergic α2A” value is on record as −5%. In addition, the “Percentage inhibition … Adrenergic α2B” value in assay [2] (0.03 μM compound, 0.03 µM) is listed as 52%. Besides, the “Percentage inhibition … Adrenergic α1B” value in assay [3] stood at 23%.

In the case of `Cc1cnc2c(c1)c1c(n2CC(C)(O)c2ccc(C)nc2)CCN2CCCC12` (single isomer, unassigned) [148c], the “Percentage inhibition … Adrenergic α2A” value in assay [1] (0.1 µM) was −1%. Moreover, in assay [2] (0.03 μM compound, 0.03 µM), the “Percentage inhibition … Adrenergic α2B” value was 16%. Also, in assay [3], the “Percentage inhibition … Adrenergic α1B” value worked out at 6%.

Take `Cc1ccc2c(c1)c1c(n2CC(c2ccncc2)N(C)C)CCN(C)C1` (single isomer, unassigned) [150a]: the “Percentage inhibition … Adrenergic α2A” value in assay [1] (0.1 µM) stood at 16%. Also, the “Percentage inhibition … Adrenergic α2B” value in assay [2] (0.03 μM compound, 0.03 µM) was 88% and 96%; in assay [2] (0.1 μM compound) it was 100%. Moreover, in assay [3], the “Percentage inhibition … Adrenergic α1B” value is listed as 16%.

On to `Cc1ccc2c(c1)c1c(n2CC(N)c2ccncc2)CC2CCC1N2C` (single isomer, unassigned) [155b], for which the “Percentage inhibition … Adrenergic α2A” value in assay [1] (0.1 µM) was found to be 5%. In addition, the “Percentage inhibition … Adrenergic α2B” value in assay [2] (0.03 μM compound) was found to be 5%. For the same compound, the “Percentage inhibition … Adrenergic α1B” value in assay [3] was found to be 1%.

Consider `Cc1cnc2c(c1)c1c(n2CC(N)c2ccc(C#N)cc2)CCN(C)C1` (single isomer, unassigned) [159b], for which the “Percentage inhibition … Adrenergic α2A” value in assay [1] is given as −12%. The “Percentage inhibition … Adrenergic α2B” value in assay [2] (0.03 μM compound, 0.03 µM) amounted to 52%. Further, in assay [3], the “Percentage inhibition … Adrenergic α1B” value is 53%.

As to `Cc1cnc2c(c1)c1c(n2CC(N)c2ccc(C#N)cc2)CCNC1` (single isomer, unassigned) [160a], in assay [1] (0.1 µM), the “Percentage inhibition … Adrenergic α2A” value is given as −12%. The “Percentage inhibition … Adrenergic α2B” value in assay [2] (0.03 μM compound, 0.03 µM) is 43%. Also, in assay [3], the “Percentage inhibition … Adrenergic α1B” value is on record as 35%.

In the case of `Cc1cnc2c(c1)c1c(n2CC(N)c2ccc(C#N)cc2)CCNC1` (single isomer, unassigned) [160b], the “Percentage inhibition … Adrenergic α2A” value in assay [1] (0.1 µM) turned out to be 5%. For the same compound, the “Percentage inhibition … Adrenergic α2B” value in assay [2] (0.03 μM compound, 0.03 µM) is on record as 41%. Moreover, the “Percentage inhibition … Adrenergic α1B” value in assay [3] came out at 65%.
